From patent publication US8110689B2, “Benzanilides with insecticidal activity” (Bayer Cropsciene AG, priority 2006, dated 2012) come the findings set out here.

Data set [1] relates to organophosphorous- and carbamate-resistant Myzus persicae. The settings on record: 100 ppm; 7 days after application; 28° C. greenhouse.

In general, melting point refers to the temperature of the solid-liquid transition. On to `CSC[C@H](C)NC(=O)c1c(Cl)cccc1C(=O)Nc1ccc(Cc2cc(C(F)(F)F)cc(C(F)(F)F)c2)nc1C`, for which the melting point fell in the range of 73 to 79 °C. Same read-out and setting: for `CSC[C@H](C)NC(=O)c1c(Cl)cccc1C(=O)Nc1ccc(Cc2cc(C(F)(F)F)cc(C(F)(F)F)c2)cc1C` the value was 57 to 62 °C. As for `Cc1cc(Cc2cc(C(F)(F)F)cc(C(F)(F)F)c2)ccc1NC(=O)c1cccc(Cl)c1C(=O)N[C@@H](C)C[S+](C)[O-]` (stereo partly shown), the melting point was 162 to 165 °C. The same measure, in the same setting: for `Cc1cc(Cc2cc(C(F)(F)F)cc(C(F)(F)F)c2)ccc1NC(=O)c1cccc(Cl)c1C(=O)N[C@@H](C)CS(C)(=O)=O` the value was 155 to 158 °C; for `CSC[C@H](C)NC(=O)c1c(C)cccc1C(=O)Nc1ccc(Cc2cc(C(F)(F)F)cc(C(F)(F)F)c2)cc1C`, 85 to 94 °C. Regarding `CSC[C@H](C)NC(=O)c1c(Cl)cccc1C(=O)Nc1ccc(Cc2cc(C(F)(F)F)cc(C(F)(F)F)c2)cc1C` [Compound No. 19], the insect mortality in data set [1] turned out to be 100%. Same read-out and setting: the value for `CSC[C@H](C)NC(=O)c1c(Cl)cccc1C(=O)Nc1ccc(Cc2cc(Br)cc(Br)c2)cc1C` [compound 152] was 100%.
